Measurements as given in ChEMBL document CHEMBL1145676, “Isolation of two flavonoids from Tanacetum microphyllum as PMA-induced ear edema inhibitors” (1997).

Tests used:
Assay type in all cases: functional
[1] = test system: Mus musculus; assay: Inhibition of PMA-induced ear edema in Swiss mouse at 3 mg/ear after 3 hrs
[2] = test system: Mus musculus; assay: Inhibition of PMA-induced ear edema in Swiss mouse at 3 mg/ear after 5 hrs
[3] = test system: Mus musculus; assay: Inhibition of PMA-induced ear edema in Swiss mouse at 3 mg/ear after 1 hr

## COc1ccc(-c2oc3cc(O)cc(O)c3c(=O)c2OC)cc1 [ERMANIN]
[1]
  inhibition (INH): 71.1%
[2]
  inhibition (INH): 78.3%
[3]
  inhibition (INH): 95.1%

## COc1ccc2c(c1)c(CC(=O)O)c(C)n2C(=O)c1ccc(Cl)cc1 [INDOMETHACIN]
[1]
  inhibition (INH): 38.6%
[2]
  inhibition (INH): 51.2%
[3]
  inhibition (INH): 47.3%

## COc1ccc(-c2oc3cc(O)c(OC)c(O)c3c(=O)c2OC)cc1 [SANTIN]
[1]
  inhibition (INH): 76.3%
[2]
  inhibition (INH): 81.1%
[3]
  inhibition (INH): 80.5%
